Laboratory results: PMC12797170, “Potent Competitive Inhibitors of Ecto-5′-nucleotidase (CD73) based on 6‑(Het)aryl-7-deazapurine Ribonucleoside 5′‑O‑Bisphosphonates” (ACS Pharmacology & Translational Science, 2025)
In brackets after ≈: the same amount, converted by molar mass.

How the values were obtained:
[1] = Kinetic solubility in PBS; format: physicochemical; conditions: phosphate-buffered saline, pH 7.4, aqueous buffer, kinetic from dmso stock
Method: Test compounds were prepared as 10 mM stock solutions in DMSO and diluted in phosphate-buffered saline (PBS, pH 7.4) to a 100 μM solution, which was then aliquoted in duplicate. The duplicate samples were incubated in Multiscreen PCF Filter Plates (Merck Millipore) with sealed bottom at room temperature on a shaker for 2 h to allow equilibration. Following incubation, the samples were centrifuged into nonsterile, flat-bottom 96-well plates at 2,200 RCF for 12 min. Supernatants were then diluted 1:99 in a solution of 50% acetonitrile containing 0.1% DMSO. The diluted samples were transferred to 384-well Echo plates, which contained prespotted calibration standards prepared by Echo transfer of 10 mM and 1 mM DMSO stock solutions, resulting in calibration points ranging from 0.05 to 4 μM. Samples and standards were subsequently analyzed by Echo-MS.

[2] = Microsomal stability assay, mouse liver microsomes; format: in vitro ADME; conditions: for Mics (m) comp remaining 60 min: 10 μM; for microsomal CLint at 10 µM: pooled liver microsomes, pH 7.4, read-out: Mics (m) CLint
[3] = test system: nonmalignant human dermal fibroblasts (NHDF); assay: In vitro cytotoxic activity; format: cell-based
Method: (§1) All the compounds were also tested for their in vitro cytotoxic activity on a small panel of four cancer cell lines (CCRF-CEM, HepG2, HeLa S3, HL-60) and nonmalignant human dermal fibroblasts (NHDF).

CCRF-CEM = assay: In vitro cytotoxic activity; format: cell-based; conditions: Homo sapiens
Method: as §1

HL-60 = assay: In vitro cytotoxic activity; format: cell-based; conditions: Homo sapiens
Method: as §1

HeLa S3 = assay: In vitro cytotoxic activity; format: cell-based; conditions: Homo sapiens
Method: as §1

HepG2 = assay: In vitro cytotoxic activity; format: cell-based; conditions: Homo sapiens
Method: as §1

in vitro [4] = conditions: mouse, plasma
in vitro [5] = conditions: human, plasma
[6] = target: T1, recombinant human CD73 (hCD73) (Homo sapiens, UniProt P21589); assay: CD73 activity assay on recombinant human CD73; format: biochemical; conditions: ΔGexp = RT ln Ki
T1 sequence (P21589 27-574): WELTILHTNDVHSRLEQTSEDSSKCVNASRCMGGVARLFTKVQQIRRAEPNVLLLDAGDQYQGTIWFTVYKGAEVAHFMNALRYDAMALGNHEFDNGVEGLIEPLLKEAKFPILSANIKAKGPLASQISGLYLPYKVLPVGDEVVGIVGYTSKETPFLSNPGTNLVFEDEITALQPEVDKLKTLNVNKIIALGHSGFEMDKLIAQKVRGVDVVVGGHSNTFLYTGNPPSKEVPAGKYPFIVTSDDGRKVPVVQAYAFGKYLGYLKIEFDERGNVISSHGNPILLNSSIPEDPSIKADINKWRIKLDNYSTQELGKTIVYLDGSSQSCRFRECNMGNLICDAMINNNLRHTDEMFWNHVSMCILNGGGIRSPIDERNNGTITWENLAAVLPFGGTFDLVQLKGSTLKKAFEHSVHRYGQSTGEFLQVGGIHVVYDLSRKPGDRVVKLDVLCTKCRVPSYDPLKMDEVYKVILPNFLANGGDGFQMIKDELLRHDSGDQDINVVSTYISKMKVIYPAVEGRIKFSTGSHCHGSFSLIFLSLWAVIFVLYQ

[7] = Plasma protein binding, equilibrium dialysis, human plasma; format: in vitro ADME; conditions: undiluted plasma, human plasma protein binding, read-out: PPB (hu) (converted)
Method: (§2) Plasma protein binding of the investigated compounds was determined using equilibrium dialysis in single-use Rapid Equilibrium Dialysis devices with an 8 kDa molecular weight cutoff (Thermo Fisher Scientific), following the manufacturer’s protocol. In brief, 50 μL of undiluted human plasma (Biowest), spiked with the test compound at a final concentration of 100 μM, was added to the sample chamber, while 300 μL of phosphate-buffered saline (PBS) was placed in the buffer chamber. Devices were incubated for 4 h at 37 °C with gentle shaking.
(§3) After dialysis, 7.5 μL aliquots from both the plasma and buffer chambers were transferred directly into wells of a 384-well plate. To equalize the matrices for downstream processing, 7.5 μL of PBS was added to each plasma aliquot, and 7.5 μL of plasma was added to each buffer aliquot. Proteins were precipitated by adding four volumes of ice-cold methanol to each well, followed by thorough mixing and incubation at – 20 °C for 30 min. Plates were then stored overnight at 8 °C. Prior to analysis, the plate was centrifuged at 2,000 × g for 20 min at 8 °C. […] The fraction of unbound compound was calculated using the following equations: %Free=c(bufferchamber)/c(plasmachamber)*100% %Bound=100%−%Free

[8] = Microsomal stability assay, human liver microsomes; format: in vitro ADME; conditions: for Mics (hu) comp remaining 60 min: 10 μM; for microsomal CLint at 10 µM: pooled liver microsomes, pH 7.4, read-out: Mics (hu) CLint
[9] = Plasma protein binding, mouse plasma; format: in vitro ADME; conditions: mouse, plasma, mouse plasma protein binding; read-out: PPB (m) (converted)
Method: as §2, §3

Structure (SMILES) | solubility at 2 h [1] | Mics (m) comp remaining 60 min [2] | microsomal CLint at 10 µM [2] | IC50 [3] | IC50 (CCRF-CEM) | IC50 (HL-60) | IC50 (HeLa S3) | IC50 (HepG2) | half-life at 10 µM (in vitro [4]) | half-life at 10 µM (in vitro [5]) | dG_exp, experimental binding free energy [6] | fraction unbound at 4 h, 100 µM [7] | Mics (hu) comp remaining 60 min [8] | microsomal CLint at 10 µM [8] | fraction unbound at 4 h, 100 µM [9]
Nc1nc(-c2ccco2)c2ccn([C@@H]3O[C@H](COP(=O)(O)CP(=O)(O)O)[C@@H](O)[C@H]3O)c2n1 [11C.1, [(5-{[2-Amino-4-(furan-2-yl)-7H-pyrrolo[2,3-d]pyrimidin-7-yl]-β-D-ribofuranosyl}oxy)phosphonomethyl]phosphonic Acid] | > 100 µM | 103% | < 1 µL/min/mg | > 10 µM | > 10 µM | > 10 µM | > 10 µM | > 10 µM | > 2 h | > 2 h | –13.1 kcal/mol | 0.224 | 107% | < 1 µL/min/mg | 0.622
O=P(O)(O)CP(=O)(O)OC[C@H]1O[C@@H](n2ccc3c(-c4ccc5cc(OCc6ccccc6)ccc5c4)nc(Cl)nc32)[C@H](O)[C@@H]1O [7B.31] | > 100 µM | 134% | < 2 µL/min/mg | > 10 µM | > 10 µM | > 10 µM | > 10 µM | > 10 µM | > 2 h | > 2 h | –14.1 kcal/mol | ≤ 0.01 | 147% | < 2 µL/min/mg | ≤ 0.01
Cc1nc(-c2ccco2)c2ccn([C@@H]3O[C@H](COP(=O)(O)CP(=O)(O)O)[C@@H](O)[C@H]3O)c2n1 [18E.1] | 89 µM (≈ 43.5 µg/mL) | 96% | 1 µL/min/mg | > 10 µM | > 10 µM | > 10 µM | > 10 µM | > 10 µM | > 2 h | > 2 h | –13.2 kcal/mol | 0.069 | 100% | < 1 µL/min/mg | 0.816
O=P(O)(O)CP(=O)(O)OC[C@H]1O[C@@H](n2ccc3c(-c4ccccc4)ncnc32)[C@H](O)[C@@H]1O [4A.5] | 80 µM (≈ 38.8 µg/mL) |  |  | > 10 µM | > 10 µM | 3.7 µM | > 10 µM | > 10 µM | > 2 h | > 2 h | –12.6 kcal/mol | 0.095 |  |  | 0.788
O=P(O)(O)CP(=O)(O)OC[C@H]1O[C@@H](n2ccc3c(-c4ccco4)ncnc32)[C@H](O)[C@@H]1O [4A.1, [(5-{[4-(Furan-2-yl)-7H-pyrrolo[2,3-d]pyrimidin-7-yl]-β-D-ribofuranosyl}oxy)phosphonomethyl]phosphonic Acid] | 25 µM (≈ 11.9 µg/mL) |  |  | > 10 µM | > 10 µM | 3.7 µM | > 10 µM | > 10 µM | > 2 h | > 2 h | –12.9 kcal/mol | 0.053 |  |  | 0.699
O=P(O)(O)CP(=O)(O)OC[C@H]1O[C@@H](n2ccc3c(-c4ccoc4)ncnc32)[C@H](O)[C@@H]1O [4A.2] | 97 µM (≈ 46.1 µg/mL) |  |  | > 10 µM | > 10 µM | 2.8 µM | > 10 µM | > 10 µM | > 2 h | > 2 h | –12.5 kcal/mol | 0.162 |  |  | 0.872
O=P(O)(O)CP(=O)(O)OC[C@H]1O[C@@H](n2ccc3c(-c4cccs4)ncnc32)[C@H](O)[C@@H]1O [4A.3] | 76 µM (≈ 37.3 µg/mL) |  |  | > 10 µM | 9.9 µM | 4.2 µM | > 10 µM | > 10 µM | > 2 h | > 2 h | –13.1 kcal/mol | 0.081 |  |  | 0.535
O=P(O)(O)CP(=O)(O)OC[C@H]1O[C@@H](n2cnc3c(-c4ccc5ccccc5c4)ncnc32)[C@H](O)[C@@H]1O [31A.7] | 86 µM (≈ 46.1 µg/mL) | 87% | 6 µL/min/mg | 3.7 µM | > 10 µM | 7.6 µM | > 10 µM | 4.8 µM | > 2 h | > 2 h |  | ≤ 0.01 | 106% | < 1 µL/min/mg | 0.224
N#Cc1ccc(-c2nc(Cl)nc3c2ccn3[C@@H]2O[C@H](COP(=O)(O)CP(=O)(O)O)[C@@H](O)[C@H]2O)c2ccccc12 [7B.34] | > 100 µM |  | < 2 µL/min/mg | > 10 µM | > 10 µM | > 10 µM | > 10 µM | > 10 µM | > 2 h | > 2 h |  | ≤ 0.01 | 97% | < 2 µL/min/mg | 0.339
